“Also recorded” adds a separate entry of the source.
How the values were obtained:
Assay type in all cases: cell-based
[1] = tested on: MCF-7 breast cancer cells; assay: Optical microscopy of treated cells, MCF-7; conditions: MCF-7, 5 μM, 48 hours, compared to HPR
Protocol: Both colon cancer HCT116 cells and breast cancer MCF-7 cells were treated with 5 μM of the retinoid derivatives KCBG10 and KCBG41 for 48 hours, and photographed by optical microscope (×200). As a control compound, HPR was used at the same concentration. In FIG. 2, the control represents non-treated cells.

[2] = tested on: RARs and RXRs; assay: CAT reporter assay, summary for RARs and RXRs (Experimental Example 9); conditions: 1 μM
Text: In order to confirm the effect of KCBG60 according to the present invention on retinoid receptor activity, cells were cotransfected with expression vectors of receptor subfamilies and reporter genes. As the reporter gene, chloramphenicol acetyltransferase (CAT) with a transcription control site reactive to respective receptors was used.
In the transcriptional activity for RXR type receptors, similar results were obtained.

[3] = tested on: various cancer cells; assay: MTT proliferation assay, summary over various cancer cells; conditions: Table 2
Protocol: The effects of test compounds on proliferation of various cancer cells was examined by 3-(4,5-dimethylthiazol-2-yl)-2,5-diphenyltetrazolium bromide (MTT, Sigma) assay in a dose dependent manner. In the MTT assay, colon, liver, cervix, ovary, and breast cancer cell lines were treated with test compounds at various concentrations. Living cancer cells reduce MTT to dark blue MTT formazan that would be measured by absorbance.
Colon cancer cells, HCT116, DLD-1 and HT29, cervix cancer cells, HeLa and CaSki, ovary cancer cells, SKOV-3, 2774 and OVCAR-3, liver cancer cells, SK-Hep-1, PLCPRF5 and HepG2, and breast cancer cells, ZR75-1 and MDA-MB 231 were seeded at an initial density of 3000 cells per well in 96-well plates. After attachment of cells to the walls of the wells, the medium containing fresh retinoid was treated with various concentrations (0.5 μM, 1 μM, 2.5 μM, 5 μM, 10 μM) for 48 hours. 50 μl of MTT solution (2 mg/ml in PBS) was added to cell culture media. The reaction micture was incubated at 37° C. in a 5% CO2 atmosphere for 4 hours. The supernatant was removed and 150 μl of DMSO was added. The optical density was measured spectrophotometrically at 550 nm. […] For other retinoid derivatives according to the present invention, absorbances were measured by this procedure and IC50 values, concentrations required for 50% growth inhibition, were determined.

How did the “number of viable cancer cells (microscopy)” value [1] turn out when `CCCC(=O)Oc1cc(O)ccc1NC(=O)/C=C(C)/C=C/C=C(C)/C=C/C1=C(C)CCCC1(C)C` [KCBG10, 2.2-[(2E,4E,6E,8E)-3,7-Dimethyl-9-(2,6,6-trimethylcyclohex-1-enyl)-nona-2,4,6,8-tetraenoylamino]-5-hydroxyphenylbutanoate] was run?
The value was “significant reductions in the number of viable cancer cells; also recorded: kills MCF-7 cells much more than other derivatives”.

How did the “number of viable cancer cells (microscopy)” value [1] turn out when `CCCC(=O)Nc1cc(NC(=O)/C=C(C)/C=C/C=C(C)/C=C/C2=C(C)CCCC2(C)C)ccc1O` [KCBG41, (2E,4E,6E,8E)-[3,7-dimethyl-9-(2,6,6-trimethylcyclohex-1-enyl)-nona-2,4,6,8-tetraenoylamino]-(3-butyrylamino-4-hydroxy)phenylamide] was run?
The value was “significant reductions in the number of viable cancer cells”.

`CC1=C(/C=C/C(C)=C/C=C/C(C)=C/C(=O)Nc2ccc(O)cc2)C(C)(C)CCC1` [HPR, (2E,4E,6E,8E)-[3,7-dimethyl-9-(2,6,6-trimethylcyclohex-1-enyl)-nona-2,4,6,8-tetraenoylamino]-4-hydroxyphenylamide] was tested. Which “activity relative to ATRA for all 3 RARs” value [2] did it give?
Its value is “about 50%”.

For `CCCC(=O)Oc1ccc(NC(=O)/C=C(C)/C=C/C=C(C)/C=C/C2=C(C)CCCC2(C)C)cc1` [KCBG60], which “activity for RARs and RXRs” value [2] is on record?
Its value is “activity as low as the control and phenyl butylate-treated group; also recorded: almost no activity for RARs and RXRs”.

With `CC1=C(/C=C/C(C)=C/C=C/C(C)=C/C(=O)O)C(C)(C)CCC1` [ATRA, All-trans-retinoic acid, reference compound] as the compound, how does the “anti-cancer activity in cells other than HepG” value [3] read?
The value was “very a low anti-cancer activity”.

From patent US7166744B2, “Retinoid derivatives and methods for producing said compounds and anti-cancer pharmaceutical composition comprising said compounds” (Chebigen Co., Ltd., priority 2001, dated 2007)
